Experimental data: the supplement of paper PMC10307832

Columns and labels:
Experiment in all cases: relative viability (nuclei count vs DMSO), 5 days (fraction); higher = more cells survive
Axitinib + Luminespib = compound: CNC(=O)c1ccccc1Sc1ccc2c(/C=C/c3ccccn3)n[nH]c2c1 [Axitinib] + CCNC(=O)c1noc(-c2cc(C(C)C)c(O)cc2O)c1-c1ccc(CN2CCOCC2)cc1 [Luminespib] (partner 0.01 µM)
In short: (§1)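 Dosing by pin tool came one day after lung cancer cell lines were seeded in 1536-well plates, using either one drug or a fixed anchor-drug dose plus five library-drug doses (not always all listed) in √10 steps. After 5 days, nuclei were counted on 4× images. Relative viability is treated-well nuclei count divided by vehicle-well nuclei count, and values are medians of duplicate plates.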

[1] = compound: CC1=CC=C(C=C1)C(=O)CN2C3=C(CCCC3)SC2=N [Pifithrin_alpha] + Cc1cc(Nc2cc(N3CCN(C)CC3)nc(Sc3ccc(NC(=O)C4CC4)cc3)n2)n[nH]1 [Tozasertib] (partner 0.1 µM)
In short: as §1

Bemcentinib + AZD7762 = compound: Nc1nc(Nc2ccc3c(c2)CC[C@@H](N2CCCC2)CC3)nn1-c1cc2c(nn1)-c1ccccc1CCC2 [Bemcentinib] + NC(=O)Nc1cc(-c2cccc(F)c2)sc1C(=O)N[C@H]1CCCNC1 [AZD7762] (partner 0.2 µM)
In short: as §1

Axitinib + Tozasertib = compound: CNC(=O)c1ccccc1Sc1ccc2c(/C=C/c3ccccn3)n[nH]c2c1 [Axitinib] + Cc1cc(Nc2cc(N3CCN(C)CC3)nc(Sc3ccc(NC(=O)C4CC4)cc3)n2)n[nH]1 [Tozasertib] (partner 0.1 µM)
In short: as §1

Cell Line	relative viability (Axitinib + Luminespib; first compound 0.005 µM)	relative viability (Axitinib + Luminespib; first compound 0.01581 µM)	relative viability (Axitinib + Luminespib; first compound 0.05 µM)	relative viability (Axitinib + Luminespib; first compound 0.1581 µM)	relative viability (Axitinib + Luminespib; first compound 0.5 µM)	relative viability ([1]; first compound 1 µM)	relative viability ([1]; first compound 3.162 µM)	relative viability ([1]; first compound 10 µM)	relative viability ([1]; first compound 100 µM)	relative viability (Bemcentinib + AZD7762; first compound 0.04 µM)	relative viability (Bemcentinib + AZD7762; first compound 0.1265 µM)	relative viability (Bemcentinib + AZD7762; first compound 0.4 µM)	relative viability (Bemcentinib + AZD7762; first compound 1.265 µM)	relative viability (Bemcentinib + AZD7762; first compound 4 µM)	relative viability (Axitinib + Tozasertib; first compound 0.005 µM)	relative viability (Axitinib + Tozasertib; first compound 0.01581 µM)	relative viability (Axitinib + Tozasertib; first compound 0.05 µM)	relative viability (Axitinib + Tozasertib; first compound 0.1581 µM)	relative viability (Axitinib + Tozasertib; first compound 0.5 µM)	relative viability ([1]; first compound 31.62 µM)
NCI-H1563	0.401	0.594	0.487	0.549	0.446	–	–	–	–	–	–	–	–	–	–	–	–	–	–	–
EMC-BAC-2	1.27	1.12	1.19	1.21	1.25	0.272	0.288	0.283	0.248	1.14	1.11	1.14	1.02	1.06	0.301	0.299	0.272	0.391	0.412	–
NCI-H596	1.12	1.09	1	0.93	1.04	0.79	0.871	0.977	0.915	1.09	1.13	1.2	0.941	1.12	1.05	0.938	0.877	0.893	0.935	0.705
NCI-H2009	1.11	1.12	1.02	1.07	1.16	0.822	0.755	0.693	0.495	–	–	–	–	–	0.76	0.815	0.708	0.786	1.08	0.413
HOP-62	0.934	0.798	0.908	0.885	0.85	0.385	0.584	0.355	0.344	0.531	0.505	0.599	0.527	0.511	0.38	0.414	0.343	0.44	0.577	0.358
NCI-H2126	0.82	0.921	0.963	0.876	0.912	0.568	0.772	0.602	0.432	1.05	1.01	0.999	1.09	1.09	0.919	0.859	0.833	0.886	1	0.596
HCC-15	0.306	0.325	0.307	0.301	0.338	0.463	0.544	0.245	0.165	1.22	1.4	1.19	1.26	1.38	0.461	0.564	0.435	0.49	0.605	0.212
NCI-H23	0.21	–	0.233	0.231	0.219	0.304	0.299	0.316	0.258	0.282	0.245	0.208	0.201	0.212	0.421	0.431	0.442	0.44	0.8	–
LCLC-97TM1	0.671	0.826	0.663	0.672	0.722	0.293	0.178	0.177	0.217	0.183	0.298	0.186	0.28	0.309	0.251	0.271	0.276	0.415	0.393	0.148
SW 1573	0.325	0.253	0.424	0.586	0.13	0.184	0.165	0.177	0.174	–	–	–	–	–	0.169	0.214	0.166	0.178	0.249	0.204
EKVX	0.879	0.86	0.828	0.878	0.965	0.532	–	0.349	0.349	0.623	0.719	0.759	0.723	0.717	0.41	0.492	0.358	0.347	0.341	0.245
HCC-44	1.07	1.07	0.484	1.04	1.35	0.748	1.07	0.685	0.452	1.07	1.05	1.01	1.08	1.04	1.07	1.14	0.702	1.02	1.19	0.461
NCI-H1651	0.941	0.965	1.03	0.745	1	0.678	0.592	0.403	0.384	0.506	0.504	0.491	0.536	0.455	0.853	0.701	0.73	0.876	0.877	0.33
COR-L23	0.667	0.614	0.744	0.631	0.749	0.168	0.15	0.152	0.13	–	–	–	–	–	0.212	0.205	0.24	0.244	0.278	–
NCI-H1734	0.19	0.221	0.212	0.2	0.191	0.28	0.259	0.238	0.245	0.516	0.611	0.613	0.518	0.441	0.278	0.268	0.274	0.241	0.25	0.262
NCI-H1793	0.148	0.23	0.16	0.187	0.169	–	0.272	0.277	0.218	0.617	0.498	0.407	0.19	0.23	0.311	0.311	0.46	0.346	0.351	0.276
NCI-H522	1.28	1.18	1.02	0.998	1.02	0.585	0.55	0.592	0.593	0.872	0.766	0.771	0.949	0.849	0.662	0.573	0.46	0.575	0.577	0.522
LU99A	0.239	0.265	0.241	0.302	0.303	0.304	0.259	0.31	0.25	0.377	0.375	0.394	0.344	0.35	0.27	0.266	0.264	0.369	0.419	0.286
NCI-H1437	1.12	1.1	1.07	1.16	1.08	0.502	0.478	0.403	0.409	1.09	1.12	1.13	1.15	1.09	0.403	0.465	0.406	0.459	0.511	0.364

Cell Line	relative viability (Axitinib + Luminespib; first compound 0.005 µM)	relative viability (Axitinib + Luminespib; first compound 0.01581 µM)	relative viability (Axitinib + Luminespib; first compound 0.05 µM)	relative viability (Axitinib + Luminespib; first compound 0.1581 µM)	relative viability (Axitinib + Luminespib; first compound 0.5 µM)	relative viability ([1]; first compound 1 µM)	relative viability ([1]; first compound 3.162 µM)	relative viability ([1]; first compound 10 µM)	relative viability ([1]; first compound 100 µM)	relative viability (Bemcentinib + AZD7762; first compound 0.04 µM)	relative viability (Bemcentinib + AZD7762; first compound 0.1265 µM)	relative viability (Bemcentinib + AZD7762; first compound 0.4 µM)	relative viability (Bemcentinib + AZD7762; first compound 1.265 µM)	relative viability (Bemcentinib + AZD7762; first compound 4 µM)	relative viability (Axitinib + Tozasertib; first compound 0.005 µM)	relative viability (Axitinib + Tozasertib; first compound 0.01581 µM)	relative viability (Axitinib + Tozasertib; first compound 0.05 µM)	relative viability (Axitinib + Tozasertib; first compound 0.1581 µM)	relative viability (Axitinib + Tozasertib; first compound 0.5 µM)	relative viability ([1]; first compound 31.62 µM)
NCI-H460	0.0293	0.0335	0.0318	0.0323	0.0338	0.397	0.485	0.0522	0.126	0.678	0.694	0.668	0.581	0.407	0.394	0.515	0.525	0.413	0.624	0.0525
NCI-H1395	0.8	0.76	0.838	0.609	0.586	0.642	0.755	0.657	0.688	–	0.404	0.425	0.406	0.366	0.739	0.883	0.725	0.682	0.764	0.627
NCI-H2085	0.451	0.389	0.404	0.502	0.415	0.828	0.467	0.427	0.489	0.956	1.03	0.863	0.767	0.748	0.652	0.771	0.807	0.827	0.913	0.478
NCI-H1703	–	–	–	–	–	–	–	–	–	0.109	0.121	0.145	0.16	0.134	–	–	–	–	–	–
HCC-366	–	–	–	–	–	0.0661	0.0593	0.0876	0.0623	0.253	0.382	0.248	0.163	0.208	0.135	0.116	0.133	0.136	0.142	–
NCI-H1648	–	–	–	–	–	0.592	0.513	0.393	0.421	0.579	0.613	0.709	0.572	0.638	0.506	0.643	–	0.483	0.602	0.47
NCI-H322M	1.06	0.845	0.833	0.796	1.07	0.51	0.483	0.493	0.486	0.545	0.564	0.593	0.681	0.617	0.453	0.435	0.432	0.437	0.527	0.449
SK-LU-1	0.224	0.21	0.188	0.201	0.238	0.291	0.329	0.291	0.316	–	–	–	–	–	0.41	0.345	0.333	0.375	0.47	–
NCI-H1650	0.195	0.194	0.192	0.203	0.236	–	0.346	0.22	0.31	–	–	–	–	–	0.448	0.382	0.49	0.411	0.482	0.261
NCI-H2228	0.142	0.118	0.147	0.174	0.138	0.247	0.147	0.209	0.135	–	–	–	–	–	0.266	0.289	0.308	0.293	0.291	0.154
NCI-H2023	0.76	0.942	0.752	0.745	0.97	0.247	0.177	0.209	0.167	–	–	–	–	–	0.368	0.395	0.38	0.483	0.604	–
COR-L 105	0.628	0.922	0.669	0.64	0.81	0.346	0.358	0.368	0.316	–	–	–	–	–	0.356	0.422	0.331	0.438	0.364	0.31
UMC-11	1.01	1.03	1.07	1.04	1.14	0.179	0.207	0.198	0.175	–	–	–	–	–	0.211	0.195	0.2	0.202	0.206	0.19
HCC-78	–	–	–	–	–	0.56	0.543	0.423	0.404	0.633	0.717	0.556	0.672	0.614	0.6	0.493	0.493	0.477	0.446	0.35
SK-MES-1	0.774	0.781	0.746	0.766	0.825	0.805	0.749	0.613	0.404	–	–	–	–	–	0.996	0.904	0.818	0.947	1.07	0.392
NCI-H520	0.228	0.239	0.23	0.222	0.284	0.446	0.438	0.364	0.421	–	–	–	–	–	0.401	–	0.439	0.417	0.347	–
NCI-H661	0.901	0.924	0.9	0.998	0.952	0.359	0.354	0.358	0.346	–	–	–	–	–	0.351	0.363	0.363	0.359	0.371	0.355
NCI-H1623	0.519	0.602	0.444	0.538	0.481	0.42	0.528	0.432	0.349	–	–	–	–	–	0.457	0.506	0.432	0.498	0.45	0.358
NCI-H1792	0.555	0.34	0.325	0.417	0.418	–	–	–	–	0.577	0.888	0.681	0.442	0.669	–	–	–	–	–	–
